Results reported in patent US10472336B2, “Modulators of indoleamine 2,3-dioxygenase” (GlaxoSmithKline Intellectual Property (No.2) Limited, priority 2015, dated 2019).
Structures can show the parent of a compound that is named as a salt.

biological target: indoleamine 2, 3-dioxygenase (IDO1) (Homo sapiens, UniProt P14902); assay: HeLa IDOi assay (kynurenine detection by mass spectrometry); format: cell-based; parameters: human epithelial HeLa cells (CCL-2; host or cells: HeLa cells stimulated with human IFN-γ; conditions: IFN-γ stimulated human epithelial HeLa cells, 2 days
Procedure: Compounds of the present invention were tested via high-throughput cellular assays utilizing detection of kynurenine via mass spectrometry and cytotoxicity as end-points. For the mass spectrometry and cytotoxicity assays, human epithelial HeLa cells (CCL-2; ATCC®, Manassas, Va.) were stimulated with human interferon-γ (IFN-γ) (Sigma-Aldrich Corporation, St. Louis, Mo.) to induce the expression of indoleamine 2, 3-dioxygenase (IDO1). Compounds with IDO1 inhibitory properties decreased the amount of kynurenine produced by the cells via the tryptophan catabolic pathway. Cellular toxicity due to the effect of compound treatment was measured using CellTiter-Glo® reagent (CTG) (Promega Corporation, Madison, Wis.), which is based on luminescent detection of ATP, an indicator of metabolically active cells.
In preparation for the assays, test compounds were serially diluted 3-fold in DMSO from a typical top concentration of 5 mM and plated at 0.5 μL in 384-well, polystyrene, clear bottom, tissue culture treated plates with lids (Greiner Bio-One, Kremsmünster, Austria) to generate 11-point dose response curves. Low control wells (0% kynurenine or 100% cytotoxicity) contained either 0.5 μL of DMSO in the presence of unstimulated (−IFN-γ) HeLa cells for the mass spectrometry assay or 0.5 μL of DMSO in the absence of cells for the cytotoxicity assay, and high control wells (100% kynurenine or 0% cytotoxicity) contained 0.5 μL of DMSO in the presence of stimulated (+IFN-γ) HeLa cells for both the mass spectrometry and cytotoxicity assays.
Frozen stocks of HeLa cells were washed and recovered in DMEM high glucose medium with HEPES (Thermo Fisher Scientific, Inc., Waltham, Mass.) supplemented with 10% v/v certified fetal bovine serum (FBS) (Thermo Fisher Scientific, Inc., Waltham, Mass.), and 1× penicillin-streptomycin antibiotic solution (Thermo Fisher Scientific, Inc., Waltham, Mass.). The cells were diluted to 100,000 cells/mL in the supplemented DMEM medium. 50 μL of either the cell suspension, for the mass spectrometry assay, or medium alone, for the cytotoxicity assay, were added to the low control wells, on the previously prepared 384-well compound plates, resulting in 5,000 cells/well or 0 cells/well respectively. IFN-γ was added to the remaining cell suspension at a final concentration of 10 nM, and 50 μL of the stimulated cells were added to all remaining wells on the 384-well compound plates. The plates, with lids, were then placed in a 37° C., 5% CO2 humidified incubator for 2 days.
Following incubation, the 384-well plates were removed from the incubator and allowed to equilibrate to room temperature for 30 minutes. For the cytotoxicity assay, CellTiter-Glo® was prepared according to the manufacturer's instructions, and 10 μL were added to each plate well. After a twenty minute incubation at room temperature, luminescence was read on an EnVision® Multilabel Reader (PerkinElmer Inc., Waltham, Mass.). For the mass spectrometry assay, 10 μL of supernatant from each well of the compound-treated plates were added to 40 μL of acetonitrile, containing 10 μM of an internal standard for normalization, in 384-well, polypropylene, V-bottom plates (Greiner Bio-One, Kremsmünster, Austria) to extract the organic analytes. Following centrifugation at 2000 rpm for 10 minutes, 10 μL from each well of the acetonitrile extraction plates were added to 90 μL of sterile, distilled H2O in 384-well, polypropylene, V-bottom plates for analysis of kynurenine and the internal standard on the RapidFire 300 (Agilent Technologies, Santa Clara, Calif.) and 4000 QTRAP MS (SCIEX, Framingham, Mass.). MS data were integrated using Agilent Technologies' RapidFire Integrator software, and data were normalized for analysis as a ratio of kynurenine to the internal standard. […]

Chain of indoleamine 2, 3-dioxygenase (IDO1) (P14902 whole entry): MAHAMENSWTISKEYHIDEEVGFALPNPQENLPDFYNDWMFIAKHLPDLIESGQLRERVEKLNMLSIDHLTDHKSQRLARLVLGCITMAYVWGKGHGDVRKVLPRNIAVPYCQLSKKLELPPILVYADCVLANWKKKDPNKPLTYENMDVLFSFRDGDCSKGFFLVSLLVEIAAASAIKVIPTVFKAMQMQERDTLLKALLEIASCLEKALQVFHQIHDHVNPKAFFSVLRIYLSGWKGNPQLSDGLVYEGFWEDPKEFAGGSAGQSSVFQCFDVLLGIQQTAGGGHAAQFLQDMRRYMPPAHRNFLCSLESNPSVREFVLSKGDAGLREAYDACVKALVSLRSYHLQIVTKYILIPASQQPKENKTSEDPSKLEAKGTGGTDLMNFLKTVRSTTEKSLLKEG

EC50 [µM]	SMILES
0.00501	CC(C)CN(CC(C)C)c1ccc(C(C)CC(=O)O)cc1Nc1nnc(C2CC2)s1 (centres unmarked) [Example 26, 3-(3-((5-cyclopropyl-1,3,4-thiadiazol-2-yl)amino)-4-(diisobutylamino)phenyl)butanoic acid, 2,2,2-trifluoro-acetic acid salt]
0.0316	CC(C)CN(CC(C)C)c1ccc(C(C)CC(=O)O)cc1Nc1nnc(-c2ccccc2)s1 (centres unmarked) [Example 27, 3-(4-(diisobutylamino)-3-((5-phenyl-1,3,4-thiadiazol-2-yl)amino)phenyl)butanoic acid]
0.0316	Cc1nnc(Nc2cc(C(C)CC(=O)O)ccc2N(CC(C)C)CC(C)C)s1 (centres unmarked) [Example 28, 3-(4-(diisobutylamino)-3-((5-methyl-1,3,4-thiadiazol-2-yl)amino)phenyl)butanoic acid]
0.0501	CC(C)CN(CC(C)C)c1ccc(C(C)CC(=O)O)cc1Nc1nc(C2CC2)ns1 (centres unmarked) [Example 30, 3-(3-((3-cyclopropyl-1,2,4-thiadiazol-5-yl)amino)-4-(diisobutylamino)phenyl)butanoic acid]
0.0794	Cc1nsc(Nc2cc(C(C)CC(=O)O)ccc2N(CC(C)C)CC(C)C)n1 (centres unmarked) [Example 31, 3-(4-(diisobutylamino)-3-((3-methyl-1,2,4-thiadiazol-5-yl)amino)phenyl)butanoic acid]
0.2	CC(C)CN(CC(C)C)c1ccc(C(C)CC(=O)O)cc1Nc1nc(Br)ns1 (centres unmarked) [Example 32, 3-(3-((3-bromo-1,2,4-thiadiazol-5-yl)amino)-4-(diisobutylamino)phenyl)butanoic acid]
0.00251	CC(C)CN(c1ccc(C(C)CC(=O)O)cc1Nc1nc(C(F)(F)F)ns1)C1CCCCC1 (centres unmarked) [Example 33, 3-(4-(cyclohexyl(isobutyl)amino)-3-((3-(trifluoromethyl)-1,2,4-thiadiazol-5-yl)amino)phenyl)butanoic acid]
0.2	CCCCc1cc(C(C)CC(=O)O)cc(Nc2nc3ccccc3o2)c1OCCC (centres unmarked) [Example 35, 3-(3-(benzo[d]oxazol-2-ylamino)-5-butyl-4-propoxyphenyl)butanoic acid]
0.158	CCCCc1cc(C(C)CC(=O)O)cc(Nc2nc(Cl)ns2)c1OCCC (centres unmarked) [Example 36, 3-(3-butyl-5-((3-chloro-1,2,4-thiadiazol-5-yl)amino)-4-propoxyphenyl)butanoic acid, 2,2,2-trifluoroacetic acid salt]
0.316	Cc1nc(Nc2cc(C(C)CC(=O)O)ccc2N(CC(C)C)CC(C)C)sc1C (centres unmarked) [Example 43, 3-(4-(diisobutylamino)-3-((4,5-dimethylthiazol-2-yl)amino)phenyl)butanoic acid]
0.02	CC(C)CN(CC(C)C)c1ccc(C(C)CC(=O)O)cc1Nc1nc(C(F)(F)F)cs1 (centres unmarked) [Example 44, 3-(4-(diisobutylamino)-3-((4-(trifluoromethyl)thiazol-2-yl)amino)phenyl)butanoic acid]
0.0794	Cc1sc(Nc2cc(C(C)CC(=O)O)ccc2N(CC(C)C)CC(C)C)nc1C(F)(F)F (centres unmarked) [Example 45, 3-(4-(diisobutylamino)-3-((5-methyl-4-(trifluoromethyl)thiazol-2-yl)amino)phenyl)butanoic acid]
0.126	CC(C)CN(CC(C)C)c1ccc(C(C)CC(=O)O)cc1Nc1nc(C(C)C)cs1 (centres unmarked) [Example 46, 3-(4-(diisobutylamino)-3-((4-isopropylthiazol-2-yl)amino)phenyl)butanoic acid]
0.398	CC(C)CN(CC(C)C)c1ccc(C(C)CC(=O)O)cc1Nc1nc(-c2ccccc2)no1 (centres unmarked) [Example 51, 3-(4-(diisobutylamino)-3-((3-phenyl-1,2,4-oxadiazol-5-yl)amino)phenyl)butanoic acid]
0.0794	CC(C)CN(c1ccc(C(C)CC(=O)O)cc1Nc1nc(Br)ns1)C1CCCCC1 (centres unmarked) [Example 52, 3-(3-((3-bromo-1,2,4-thiadiazol-5-yl)amino)-4-(cyclohexyl(isobutyl)amino)phenyl)butanoic acid]
0.158	CC(C)CN(c1ccc(C(C)CC(=O)O)cc1NCc1ccccc1)C1CCCCC1 (centres unmarked) [Example 69, 3-(3-(Benzylamino)-4-(cyclohexyl(isobutyl)amino)phenyl)butanoic Acid]
0.126	CC(C)CN(c1ccc(C(C)CC(=O)O)cc1NC1CCOCC1)C1CCCCC1 (centres unmarked) [Example 70, 3-(4-(Cyclohexyl(isobutyl)amino)-3-((tetrahydro-2H-pyran-4-yl)amino)phenyl)butanoic Acid]
0.316	CC(C)CN(c1ccc(C(C)CC(=O)O)cc1NC1=N[C@H](c2ccccc2)CO1)C1CCCCC1 (stereo partly drawn) [Example 72, 3-(4-(Cyclohexyl(isobutyl)amino)-3-(((R)-4-phenyl-4,5-dihydrooxazol-2-yl)amino)phenyl)butanoic Acid]
0.398	CC(C)CN(c1ccc(C(C)CC(=O)O)cc1NC1=N[C@@H](C)CS1)C1CCCCC1 (stereo partly drawn) [Example 73, 3-(4-(cyclohexyl(isobutyl)amino)-3-(((S)-4-methyl-4,5-dihydrothiazol-2-yl)amino)phenyl) butanoic acid]
0.398	CC(C)CN(c1ccc(C(C)CC(=O)O)cc1NC1=N[C@H](C)CS1)C1CCCCC1 (stereo partly drawn) [Example 74, 3-(4-(Cyclohexyl(isobutyl)amino)-3-(((R)-4-methyl-4,5-dihydrothiazol-2-yl)amino)phenyl)butanoic Acid]
